Assay results published in US6436419B1, “Antimicrobial treatment of polymers” (The Regents of the University of California, priority 1998, dated 2002).

Experiments:
[1] = Add-on rates of quaternary ammonium salts on dyed and undyed nylon fabrics and weight loss after Launder-Ometer washing; type: physicochemical; settings: for Add-on rate after 7 washes (%): Launder-Ometer, AATCC test method 61; for Total weight loss after the + 7 washes (%): after finishing and 7 Launder-Ometer washes
Experimental: Nylon fabrics were dyed with 1% on weight fabric (o.w.f.) dye solutions at 95° C. for 90 min. The liquor ratio was 1:50, and the pH of the dye bath was adjusted to pH=3.5 with acetic acid. The dyed fabrics were washed with the AATCC standard detergent after dyeing and then cured at 120° C. for 15 minutes.
The antibacterial finishing baths were prepared by dissolving quaternary ammonium salts in distilled water. The pH value was adjusted to pH=4 with acetic acid. The dyed nylon fabric was dipped in the antibacterial agent solution, padded to a wet pick up of about 60% and cured at an elevated temperature for an extended period.
The finished fabric was washed in a Launder-Ometer, according to AATCC Test Method 61-1994 to evaluate the washing durability. One cycle of Launder-Ometer washing test by this AATCC Test Method is equivalent to about five machine washes in a home laundry practice.
The nylon fabrics were first dyed with two different acid dyes at concentration of 1% on weight fabric (o.w.f) and then treated with the quaternary ammonium salts.
The weight loss of a fabric sample is calculated based on its total weight change after the finishing and washing.

[2] = as above; type: physicochemical; settings: 6% quaternary salt solution, pH = 3.7, cured 120° C. 30 minutes
[3] = nylon fabric dyed with Acid Blue 113 1% owf
[4] = nylon fabric dyed with Acid Red 88 1% owf

SMILES | Add-on rate after 7 washes (%) ([1]; Undyed nylon fabric) | Total weight loss after the + 7 washes (%) ([1]; Undyed nylon fabric) | Add-on rate after 7 washes (%) [1, 3] | Total weight loss after the + 7 washes (%) [1, 3] | Add-on rate after 7 washes (%) [1, 4] | Total weight loss after the + 7 washes (%) [1, 4] | Add-on rate (%) ([2]; Undyed nylon fabric) | Add-on rate (%) [2, 3] | Add-on rate (%) [2, 4]
CCCCCCCCCCCC[N+](C)(C)C.[Br-] [DTAB, Dodecyltrimethyl ammonium bromide] | −3.51% | −1.00% | −3.48% | 0.28% | −3.39% | −0.04% | 2.51% | 3.86% | 3.35%
CCCCCCCCCCCC[N+](C)(C)CC(O)C[N+](C)(C)CCCCCCCCCCCC.[Cl-].[Cl-] [Dimer, 1,3-Bis-(N,N-dimethyldodecylammonium chloride)-2-propanol] | −3.20% | −0.47% | −2.54% | −0.25% | −3.08% | −0.09% | 2.73% | 2.29% | 2.99%
CCCCCCCCCCCC[N+](C)(C)CC(O)CCl.[Cl-] (stereo not drawn) [Monomer, N-(3-chloro-2-hydroxypropyl)-N,N-dimethyldodecylammonium chloride] | −1.81% | −0.73% | −2.44% | −0.43% | −1.87% | −0.09% | 1.08% | 2.01% | 1.78%
